Results: PMC10281575, “PfCRT mutations conferring piperaquine resistance in falciparum malaria shape the kinetics of quinoline drug binding and transport” (PLOS Pathogens, 2023)
Positions count from the first letter of the chain named. Several values for one entry are separate records, joined by “and”; a condition that tells them apart may be missing. Identical values can stand only once.

Legend:
PfCRT^Dd2_M343L = target: T1, PfCRT^Dd2_M343L (Plasmodium falciparum, UniProt Q8IBZ9, A220S/I356T/K76T/M343L/M74I/N326S/N75E/Q271E/R371I); assay: Radiolabeled drug uptake in X. laevis oocytes expressing PfCRT^Dd2_M343L; assay type: cell-based
T1 construct: expressed in transfected cells; host or cells: Xenopus laevis oocytes injected with in vitro transcribed RNA (pSP64T)
T1 sequence (Q8IBZ9 1-424 M74I/N75E/K76T/A220S/Q271E/N326S/M343L/I356T/R371I): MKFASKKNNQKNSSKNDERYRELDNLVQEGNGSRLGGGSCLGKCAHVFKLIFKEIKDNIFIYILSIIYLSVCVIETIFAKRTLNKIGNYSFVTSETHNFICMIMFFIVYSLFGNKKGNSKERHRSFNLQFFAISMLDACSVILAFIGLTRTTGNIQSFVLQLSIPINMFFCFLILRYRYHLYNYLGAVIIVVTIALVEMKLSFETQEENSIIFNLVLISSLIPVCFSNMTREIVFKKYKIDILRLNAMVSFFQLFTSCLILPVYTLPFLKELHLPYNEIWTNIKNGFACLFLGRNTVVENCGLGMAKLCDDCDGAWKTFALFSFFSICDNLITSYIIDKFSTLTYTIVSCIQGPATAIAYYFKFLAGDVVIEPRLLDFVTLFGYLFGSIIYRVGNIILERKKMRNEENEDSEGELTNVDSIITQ
Excerpt: (§1) A codon-optimized coding sequence of the Dd2 isoform of PfCRT (PfCRT^Dd2) was subcloned into the pSP64T expression vector [21]. To generate the necessary mutations to introduce the amino acid substitutions H97Y, F145I, M343L or G353V into the pfcrt sequence, the overlap extension method was used. A region from the 5’-untranslated Xenopus β-globin sequence to the respective 3’ region, containing the full length pfcrt coding sequence, was amplified using the following primer pairs: for the H97Y mutation, numbers 1/4 and 2/3; for the F145I mutation, numbers 1/6 and 2/5; for the M343L mutation, numbers 1/8 and 2/7; and for the G353V mutation, numbers 1/10 and 2/9 (for primers, see S2 Table). Both PCR products were used as template for amplification of the final product using primers number 1/2. The resulting fragment was cloned into the pSP64T expression vector, and the presence of the desired mutation was confirmed by sequencing.
(§2) Adult female X. laevis frogs (purchased from NASCO) were anesthetized by submersion in a solution of 0.3% (w/v) 3-amino benzoate methanesulfonate for 15 min. Sections of the ovary were surgically removed and placed in Ca^2+-free ND96 buffer supplemented with 0.1% collagenase D (w/v; Roche), 0.5% BSA (w/v) and 9 mM Na2HPO4 at 18°C for 14–16 h while gently shaking. The oocytes were then washed several times with ND96 buffer (5 mM HEPES, pH 7.5, 96 mM NaCl, 2 mM KCl, 1.8 mM CaCl2, 1 mM MgCl2), supplemented with […] gentamycin. Healthy-looking stage V-VI oocytes were manually selected and randomly grouped for injection. A codon-optimized coding sequence of PfCRT was subcloned into the pSP64T expression vector and subsequently linearized using the restriction endonuclease BamHI or SalI (New England Biolabs GmbH). RNA for injection was transcribed in vitro using the mMESSAGE mMACHINE SP6 Transcription kit (Ambion), diluted with nuclease-free water to a final concentration of 0.6 μg/μL and stored at -80°C. RNA was injected using precision-bore glass capillary tubes (3.5-inch glass capillaries; Drummond Scientific Co.), which were pulled on a vertical puller (P-87 Flaming/Brown micropipette puller, Sutter Instrument Co.) and graduated. The micropipettes were connected to a microinjector (Nanoject II Auto-Nanoliter Injector, Drummond Scientific Co.). Injection was conducted under stereomicroscopic control. 50 nL of nuclease-free water alone (control oocytes) or 50 nL of nuclease-free water containing 30 ng of RNA was injected per oocyte. Injected oocytes were kept for 72 h at 18°C in ND96 buffer with two daily buffer changes before being used for further experiments.
(§3) Drug transport assays were performed as previously described. Briefly, measurements of radiolabeled drug uptake were made over 1 h, unless otherwise specified. […] Where specified, one or more unlabeled drugs were also present at the indicated concentrations. […] The uptake assays were terminated by removing the oocytes from the reaction medium and washing them three times with 2 mL of ice-cold ND96 buffer. Each oocyte was transferred to a separate scintillation vial and lysed by the addition of 200 μL of a 5% SDS solution. The radioactivity in the sample was measured using a liquid scintillation analyser Tri-Carb 4910 TR (PerkinElmer). Water-injected oocytes were analyzed in parallel as a negative control. The buffer from each condition was measured in duplicate in parallel to each experiment to transform counts per minute into pmol of drug. Drug uptake attributable to PfCRT was determined by subtracting the background uptake from water-injected oocytes from that of PfCRT-expressing oocytes. In all cases, at least three independent experiments were performed on oocytes from different frogs, and for each condition in an experiment, measurements were made from 10 oocytes per treatment.

PfCRT^Dd2_G353V = target: T2, PfCRT^Dd2_G353V (Plasmodium falciparum, UniProt Q8IBZ9, A220S/G353V/I356T/K76T/M74I/N326S/N75E/Q271E/R371I); assay: Radiolabeled drug uptake in X. laevis oocytes expressing PfCRT^Dd2_G353V; assay type: cell-based
T2 construct: expressed in transfected cells; host or cells: Xenopus laevis oocytes injected with in vitro transcribed RNA (pSP64T)
T2 sequence (Q8IBZ9 1-424 M74I/N75E/K76T/A220S/Q271E/N326S/G353V/I356T/R371I): T1 sequence (Q8IBZ9 1-424 M74I/N75E/K76T/A220S/Q271E/N326S/M343L/I356T/R371I) with L343M, G353V
Excerpt: as §1, §2, §3

[1] = Michaelis-Menten fit, 10-500 μM drug, pH 6
[2] = Michaelis-Menten fit, 10-500 μM drug, pH 6, read-out: KM, Michaelis constant

## CCN(CC)CCCC(C)Nc1ccnc2cc(Cl)ccc12 (stereo not drawn) [CQ, chloroquine]
PfCRT^Dd2_M343L; 10 µM CQ, single replicates
  PfCRTDd2_M343L-mediated CQ uptake at 10 µM CQ: 1.16 pmol oocyte-1 h-1 and 0.62 pmol oocyte-1 h-1 and 0.22 pmol oocyte-1 h-1
PfCRT^Dd2_M343L; 50 µM CQ, single replicates
  PfCRTDd2_M343L-mediated CQ uptake at 50 µM CQ: 2.13 pmol oocyte-1 h-1 and 3.20 pmol oocyte-1 h-1 and 2.38 pmol oocyte-1 h-1 and 2.37 pmol oocyte-1 h-1
PfCRT^Dd2_M343L; 100 µM CQ, single replicates
  PfCRTDd2_M343L-mediated CQ uptake at 100 µM CQ: 5.08 pmol oocyte-1 h-1 and 4.43 pmol oocyte-1 h-1 and 5.13 pmol oocyte-1 h-1
PfCRT^Dd2_M343L; 300 µM CQ, single replicates
  PfCRTDd2_M343L-mediated CQ uptake at 300 µM CQ: 10.45 pmol oocyte-1 h-1 and 11.10 pmol oocyte-1 h-1 and 13.47 pmol oocyte-1 h-1
PfCRT^Dd2_M343L; 500 µM CQ, single replicates
  PfCRTDd2_M343L-mediated CQ uptake at 500 µM CQ: 14.93 pmol oocyte-1 h-1 and 14.77 pmol oocyte-1 h-1 and 15.77 pmol oocyte-1 h-1
PfCRT^Dd2_M343L; [1]
  Vmax, maximal velocity of drug transport: 31 ± 2 pmol oocyte^-1 h^-1
PfCRT^Dd2_G353V; 10 µM CQ, single replicates
  PfCRTDd2_G353V-mediated CQ uptake at 10 µM CQ: 0.74 pmol oocyte-1 h-1 and 0.50 pmol oocyte-1 h-1 and 0.07 pmol oocyte-1 h-1
PfCRT^Dd2_G353V; 50 µM CQ, single replicates
  PfCRTDd2_G353V-mediated CQ uptake at 50 µM CQ: 4.74 pmol oocyte-1 h-1 and 5.01 pmol oocyte-1 h-1 and 2.88 pmol oocyte-1 h-1 and 3.92 pmol oocyte-1 h-1 and 4.76 pmol oocyte-1 h-1
PfCRT^Dd2_G353V; 100 µM CQ, single replicates
  PfCRTDd2_G353V-mediated CQ uptake at 100 µM CQ: 7.26 pmol oocyte-1 h-1 and 6.49 pmol oocyte-1 h-1 and 5.26 pmol oocyte-1 h-1
PfCRT^Dd2_G353V; 300 µM CQ, single replicates
  PfCRTDd2_G353V-mediated CQ uptake at 300 µM CQ: 16.30 pmol oocyte-1 h-1 and 8.52 pmol oocyte-1 h-1 and 8.09 pmol oocyte-1 h-1
PfCRT^Dd2_G353V; 500 µM CQ, single replicates
  PfCRTDd2_G353V-mediated CQ uptake at 500 µM CQ: 17.15 pmol oocyte-1 h-1 and 14.95 pmol oocyte-1 h-1 and 14.10 pmol oocyte-1 h-1
PfCRT^Dd2_G353V; [1]
  Vmax, maximal velocity of drug transport: 23 ± 3 pmol oocyte^-1 h^-1

## Clc1ccc2c(N3CCN(CCCN4CCN(c5ccnc6cc(Cl)ccc56)CC4)CC3)ccnc2c1 [PPQ, piperaquine]
PfCRT^Dd2_M343L; 10 µM PPQ, single replicates
  PfCRTDd2_M343L-mediated PPQ uptake at 10 µM PPQ: 13.08 pmol oocyte-1 h-1 and 6.84 pmol oocyte-1 h-1 and 2.69 pmol oocyte-1 h-1
PfCRT^Dd2_M343L; 50 µM PPQ, single replicates
  PfCRTDd2_M343L-mediated PPQ uptake at 50 µM PPQ: 84.22 pmol oocyte-1 h-1 and 103.15 pmol oocyte-1 h-1 and 60.92 pmol oocyte-1 h-1 and 65.48 pmol oocyte-1 h-1 and 62.52 pmol oocyte-1 h-1 and 18.03 pmol oocyte-1 h-1
PfCRT^Dd2_M343L; 100 µM PPQ, single replicates
  PfCRTDd2_M343L-mediated PPQ uptake at 100 µM PPQ: 130.36 pmol oocyte-1 h-1 and 98.93 pmol oocyte-1 h-1 and 50.24 pmol oocyte-1 h-1
PfCRT^Dd2_M343L; 300 µM PPQ, single replicates
  PfCRTDd2_M343L-mediated PPQ uptake at 300 µM PPQ: 154.89 pmol oocyte-1 h-1 and 102.01 pmol oocyte-1 h-1 and 116.02 pmol oocyte-1 h-1
PfCRT^Dd2_M343L; 500 µM PPQ, single replicates
  PfCRTDd2_M343L-mediated PPQ uptake at 500 µM PPQ: 164.14 pmol oocyte-1 h-1 and 130.73 pmol oocyte-1 h-1 and 130.95 pmol oocyte-1 h-1
PfCRT^Dd2_M343L; [2]
  Km: 80 ± 16 µM
PfCRT^Dd2_G353V; 10 µM PPQ, single replicates
  PfCRTDd2_G353V-mediated PPQ uptake at 10 µM PPQ: 5.31 pmol oocyte-1 h-1 and 5.17 pmol oocyte-1 h-1 and 3.93 pmol oocyte-1 h-1
PfCRT^Dd2_G353V; 50 µM PPQ, single replicates
  PfCRTDd2_G353V-mediated PPQ uptake at 50 µM PPQ: 29.38 pmol oocyte-1 h-1 and 45.38 pmol oocyte-1 h-1 and 21.36 pmol oocyte-1 h-1 and 40.00 pmol oocyte-1 h-1 and 56.34 pmol oocyte-1 h-1 and 56.46 pmol oocyte-1 h-1 and 95.52 pmol oocyte-1 h-1 and 62.83 pmol oocyte-1 h-1
PfCRT^Dd2_G353V; 100 µM PPQ, single replicates
  PfCRTDd2_G353V-mediated PPQ uptake at 100 µM PPQ: 105.67 pmol oocyte-1 h-1 and 52.72 pmol oocyte-1 h-1 and 63.14 pmol oocyte-1 h-1
PfCRT^Dd2_G353V; 300 µM PPQ, single replicates
  PfCRTDd2_G353V-mediated PPQ uptake at 300 µM PPQ: 116.72 pmol oocyte-1 h-1 and 65.87 pmol oocyte-1 h-1 and 109.27 pmol oocyte-1 h-1
PfCRT^Dd2_G353V; 500 µM PPQ, single replicates
  PfCRTDd2_G353V-mediated PPQ uptake at 500 µM PPQ: 126.72 pmol oocyte-1 h-1 and 99.20 pmol oocyte-1 h-1 and 126.01 pmol oocyte-1 h-1
PfCRT^Dd2_G353V; [2]
  Km: 90 ± 20 µM
